According to ChEMBL document CHEMBL3508693 (2016):

How the values were obtained:
[1] = Excretion (24h) of radioactivity in urine following intravenous administration of [14C] aliskiren hemifumarate at 10 mg.Kg-1 level in rat; format: ADME, organism-based, Lister-Hooded; settings: in vivo
[2] = Excretion of radioactivity (0-24h) in faeces following single intravenous dose of 10 mg.Kg-1 [14C] aliskiren hemifumarate in mouse; format: ADME, organism-based, TgRasH2, Feces; settings: in vivo
[3] = Concentration of radioactivity in the colon wall following repeated oral administration of [14C] aliskiren hemifumarate at 100 mg.Kg-1 level studied at 24h after 7th dose in rat; format: ADME, organism-based, Albino HAN:WIST; settings: in vivo
[4] = Concentration of radioactivity in the kidney medulla following repeated oral administration of [14C] aliskiren hemifumarate at 100 mg.Kg-1 level studied at 2h after 7th dose in rat; format: ADME, organism-based, Albino HAN:WIST, Renal medulla; settings: in vivo
[5] = Tmax (0-168h) of total radioactivity following single intravenous administration of [14C] aliskiren hemifumarate at 1 mg.Kg-1 level in marmoset; format: ADME, organism-based, Callithrix jacchus, Plasma; settings: in vivo
[6] = AUC/dose (0-96h) of total radioactivity following oral administration of [14C] aliskiren hemifumarate at 100 mg.Kg-1 level in rat; format: ADME, organism-based, Albino HAN:WIST, Plasma; settings: in vivo
[7] = Excretion of radioactivity (48-72h) in urine following single intravenous dose of 10 mg.Kg-1 [14C] aliskiren hemifumarate in mouse; format: ADME, organism-based, TgRasH2; settings: in vivo
[8] = Cmax of [14C] aliskiren hemifumarate following single oral dose of [14C] aliskiren hemifumarate at 500 mg.Kg-1 level in mouse; format: ADME, organism-based, TgRasH2, Plasma; settings: in vivo
[9] = Excretion of radioactivity (0-96h) in faeces following single intravenous dose of 10 mg.Kg-1 [14C] aliskiren hemifumarate in rat; format: ADME, organism-based, Albino HAN:WIST, Feces; settings: in vivo
[10] = Concentration of radioactivity in the colon wall following repeated oral administration of [14C] aliskiren hemifumarate at 100 mg.Kg-1 level studied at 2h after 3rd dose in rat; format: ADME, organism-based, Albino HAN:WIST; settings: in vivo
[11] = Total excretion (0-72h) of radioactivity in urine, faeces and cage wash following single intravenous dose of 10 mg.Kg-1 [14C] aliskiren hemifumarate in mouse; format: ADME, organism-based, TgRasH2, Urine/Feces; settings: in vivo
[12] = Concentration of radioactivity in the kidney medulla following repeated oral administration of [14C] aliskiren hemifumarate at 100 mg.Kg-1 level studied at 2h after 10th dose in rat; format: ADME, organism-based, Albino HAN:WIST, Renal medulla; settings: in vivo
[13] = Excretion of radioactivity (24-48h) in faeces following single oral dose of 100 mg.Kg-1 [14C] aliskiren hemifumarate in rat; format: ADME, organism-based, Albino HAN:WIST, Feces; settings: in vivo
[14] = Apparent Vmax value of metabolism of [14C] aliskiren hemifumarate studied in human liver microsome; format: ADME; settings: microsomes
[15] = biological target: Cytochrome P450 2D6 (Homo sapiens, UniProt P10635); test: Activity of human recombinant CYP2D6 assessed as enzyme contribution (% total relative CL) towards [14C]SPP100 hemifumarate metabolism in human liver microsome; format: ADME; settings: microsomes
Cytochrome P450 2D6, sequence (P10635 whole entry): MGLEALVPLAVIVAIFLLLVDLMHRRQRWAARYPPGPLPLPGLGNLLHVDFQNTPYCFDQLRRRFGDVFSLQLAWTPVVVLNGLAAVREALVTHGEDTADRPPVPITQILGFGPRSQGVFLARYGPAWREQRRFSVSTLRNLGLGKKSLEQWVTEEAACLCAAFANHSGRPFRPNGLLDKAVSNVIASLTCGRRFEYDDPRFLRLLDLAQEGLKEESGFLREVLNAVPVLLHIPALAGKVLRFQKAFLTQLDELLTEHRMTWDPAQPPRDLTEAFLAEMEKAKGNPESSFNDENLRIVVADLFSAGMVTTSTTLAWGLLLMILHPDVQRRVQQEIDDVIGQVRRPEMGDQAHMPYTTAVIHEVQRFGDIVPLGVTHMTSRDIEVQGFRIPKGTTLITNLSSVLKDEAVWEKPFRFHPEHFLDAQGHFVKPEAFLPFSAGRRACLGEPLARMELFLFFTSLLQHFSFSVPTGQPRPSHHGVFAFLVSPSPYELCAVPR

[16] = Concentration of radioactivity in the liver following repeated oral administration of [14C] aliskiren hemifumarate at 100 mg.Kg-1 level studied at 24h after 10th dose in rat; format: ADME, organism-based, Albino HAN:WIST; settings: in vivo
[17] = biological target: T1, CYP2A6 (Homo sapiens, UniProt P11509); test: Inhibitory activity of 200 uM SPP100 on 37 Pmoles of cDNA-derived CYP2A6 enzyme in microsome prepared from human lymphoblastoid cell line; format: ADME, microsomes; design: conc 200 uM, interact cpd conc 3 uM; settings: probe coumarine
T1 sequence (P11509 whole entry): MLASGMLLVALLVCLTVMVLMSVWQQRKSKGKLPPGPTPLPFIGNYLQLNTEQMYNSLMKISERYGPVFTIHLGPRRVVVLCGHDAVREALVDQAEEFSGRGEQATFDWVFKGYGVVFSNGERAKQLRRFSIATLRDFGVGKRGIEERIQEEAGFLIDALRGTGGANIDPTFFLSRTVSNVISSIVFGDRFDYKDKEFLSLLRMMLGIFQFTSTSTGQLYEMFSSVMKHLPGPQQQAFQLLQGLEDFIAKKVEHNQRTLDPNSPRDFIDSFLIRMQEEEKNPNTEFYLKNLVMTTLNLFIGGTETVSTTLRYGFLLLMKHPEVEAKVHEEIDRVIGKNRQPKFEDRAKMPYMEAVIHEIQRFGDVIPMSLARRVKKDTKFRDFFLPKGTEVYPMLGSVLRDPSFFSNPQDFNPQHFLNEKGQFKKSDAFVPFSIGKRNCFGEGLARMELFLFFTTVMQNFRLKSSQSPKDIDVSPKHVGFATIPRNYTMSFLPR

[18] = Effect of 2 week oral dosing of aliskiren hemifumarate at 100 mg.Kg-1 level on plasma magnesium level in female Callithrix jacchus; format: toxicity, organism-based; settings: marmoset, 336 h
[19] = Apparent terminal half-life (0-168h) of unlabeled aliskiren hemifumarate following single intravenous administration of aliskiren hemifumarate at 1 mg.Kg-1 level in marmoset; format: ADME, organism-based, Callithrix jacchus; settings: plasma
[20] = AUC of aliskiren hemifumarate following single dosing of SPP100B oral solution at 640 mg level studied on day 1 in men; format: ADME, organism-based; settings: male, human, plasma
[21] = Cmax of aliskiren hemifumarate following single dosing of SPP100B oral solution at 80 mg level studied on day 1 in men; format: ADME, organism-based; settings: male, human, plasma
[22] = Tmax of aliskiren hemifumarate following 2 week oral dosing of aliskiren hemifumarate at 100 mg.Kg-1 level studied on day 1 in male Callithrix jacchus; format: ADME, organism-based; settings: marmoset, plasma
[23] = Cmax/dose of aliskiren hemifumarate following 4 week oral dietary dosing of aliskiren hemifumarate at 1000 mg.Kg-1 level in male mouse; format: ADME, organism-based, CB6F1-TGrasH2; settings: in vivo, 672 h
[24] = AUC of aliskiren hemifumarate following single dosing of SPP100B oral solution at 160 mg level studied on day 1 in men; format: ADME, organism-based; settings: male, human, plasma
[25] = AUC(0-24)/dose of aliskiren hemifumarate following repeated oral administration of [14C] aliskiren hemifumarate at 100 mg.Kg-1 level studied in rat; format: ADME, organism-based, Albino HAN:WIST, Plasma; settings: in vivo
[26] = AUC (0-24h)/dose of aliskiren hemifumarate following 4 week oral dietary dosing of aliskiren hemifumarate at 500 mg.Kg-1 level in male mouse; format: ADME, organism-based, CB6F1-TGrasH2, Plasma; settings: in vivo
[27] = Tmax of aliskiren hemifumarate following 4 week oral dietary dosing of aliskiren hemifumarate at 2000 mg.Kg-1 level in female mouse; format: ADME, organism-based; settings: CB6F1-TGrasH2, mouse, in vivo
[28] = Tmax of aliskiren hemifumarate following 2 week oral dosing of aliskiren hemifumarate at 10 mg.Kg-1 level studied on […] in male Callithrix jacchus; format: ADME, organism-based; settings: marmoset, plasma
[29] = AUC/dose (0-168h) of unlabeled aliskiren hemifumarate following single oral administration of aliskiren hemifumarate at 3 mg.Kg-1 level in marmoset; format: ADME, organism-based, Callithrix jacchus, Plasma; settings: in vivo
[30] = Cmax of unlabeled aliskiren hemifumarate following single intravenous dose of aliskiren hemifumarate at 10 mg.Kg-1 level in mouse; format: ADME, organism-based; settings: TgRasH2, mouse, plasma
[31] = Effect of 4 week oral dietary dosing of aliskiren hemifumarate at 1500 mg.Kg-1 level on density of uterine gland in female mouse; format: toxicity, organism-based, CB6F1-TGrasH2, Endometrial gland; settings: in vivo, 672 h
[32] = t1/2 of aliskiren hemifumarate following 2 week oral dosing of aliskiren hemifumarate at 100 mg.Kg-1 level studied on day 14 in male Callithrix jacchus; format: ADME, organism-based; settings: marmoset, plasma
[33] = AUC (0-96 or 0-168h) of unlabeled aliskiren hemifumarate following single intravenous administration of aliskiren hemifumarate at 1 mg.Kg-1 level in marmoset; format: ADME, organism-based, Callithrix jacchus; settings: plasma

In the case of `COCCCOc1cc(C[C@@H](C[C@H](N)[C@@H](O)C[C@H](C(=O)NCC([14CH3])([14CH3])C(N)=O)C(C)C)C(C)C)ccc1OC.O=C(O)/C=C/C(=O)O`, the Radiolabel recovery [1] is reported as 10%, the Radiolabel recovery [2] is reported as 84.68% and the Radiolabel recovery [3] is reported as “OUTCOME = Observed, VALUE = Highest radioactivity concentration was observed”. For the same molecule, the Radiolabel recovery [4] was “OUTCOME = Detected”, the Tmax [5] was 4.98 min and the AUC normalised [6] was 0.054 (umol.h/L)/(mg/kg). The AUC normalised ([6]; iv, 10 mg/kg) was 0.81 (umol.h/L)/(mg/kg), the Radiolabel recovery [7] was 8.99% and the Cmax [8] was 2.17 µM. For the same molecule, the Radiolabel recovery [9] was 90%, the Radiolabel recovery [10] was “OUTCOME = Observed, VALUE = Highest radioactivity concentration was observed” and the Radiolabel recovery [11] was 93.38%. For the same molecule, the Radiolabel recovery [12] was “OUTCOME = Detected”, the Radiolabel recovery [13] was 0.68% and the Vmax [14] was 1807.6 pmol·min/mg. For the same molecule, the Activity [15] was 0.38% and the Radiolabel recovery [16] was “OUTCOME = Detected”.
`COCCCOc1cc(C[C@@H](C[C@H](N)[C@@H](O)C[C@H](C(=O)NCC(C)(C)C(N)=O)C(C)C)C(C)C)ccc1OC` gave an inhibition at 200 µM [17] of 2.6%.
With `COCCCOc1cc(C[C@@H](C[C@H](N)[C@@H](O)C[C@H](C(=O)NCC(C)(C)C(N)=O)C(C)C)C(C)C)ccc1OC.COCCCOc1cc(C[C@@H](C[C@H](N)[C@@H](O)C[C@H](C(=O)NCC(C)(C)C(N)=O)C(C)C)C(C)C)ccc1OC.O=C(O)/C=C/C(=O)O` [ALISKIREN FUMARATE] the “Plasma magnesium_CHANGE_BY” value [18] was 130%, the half-life [19] was 36 h and the AUC [20] was 1190 ng·h/mL. For the same molecule, the Cmax [21] was 11 ng/mL, the Tmax [22] was 1 h and the Cmax normalised [23] was 0.879 (ng/mL)/(mg/kg/day). For the same molecule, the AUC [24] was 215 ng·h/mL, the “AUC(0-24) normalised” value [25] was 17.2 (nmol.h.L-1)/(mg/kg) and the AUC normalised [26] was 3.41 ((ng/mL).hours)/(mg/kg/day). For the same molecule, the Tmax [27] was 0.5 h, the Tmax [28] was 2 h and the AUC normalised [29] was 1.52 (umol.h/L)/(mg/kg). For the same molecule, the Cmax [30] was 19.8 µM, the “Change in density of uterine gland” value [31] was “OUTCOME = Decreased. No animals died during the study” and the half-life [32] was 7.8 h. The AUC at 168 h [33] was 49 µM·h.
